Measured values taken from the CheMixHub ionic liquid set.

Experiment: xn = mol fraction of the nth substance listed

CC[n+]1ccn(C)c1.O=S(=O)([O-])O + O=C([O-])CC(O)(CC(=O)[O-])C(=O)[O-].[NH4+].[NH4+].[NH4+] + O
viscosity [mPa·s], 101 kPa
Details | 293.15 K | 298.15 K | 303.15 K | 308.15 K | 313.15 K
x2 = 0, x1 = 0.0006645 | 1.023 | 0.93 | 0.823 | 0.75 | 0.674
x2 = 0, x1 = 0.0007293 | 1.036 | 0.943 | 0.825 | 0.749 | 0.689
x2 = 0, x1 = 0.0009254 | 1.064 | 0.943 | 0.844 | 0.763 | 0.683
x2 = 0.0007784, x1 = 0.0007287 | 1.08 | 0.994 | 0.875 | 0.801 | 0.743
x2 = 0.0007964, x1 = 0.0009246 | 1.11 | 0.994 | 0.895 | 0.815 | 0.737
x2 = 0.000825, x1 = 0.0006639 | 1.07 | 0.983 | 0.877 | 0.803 | 0.727
x2 = 0.001056, x1 = 0.0007285 | 1.096 | 1.005 | 0.886 | 0.813 | 0.756
x2 = 0.001057, x1 = 0.0006638 | 1.083 | 0.992 | 0.886 | 0.813 | 0.737
x2 = 0.001176, x1 = 0.0009243 | 1.133 | 1.008 | 0.911 | 0.832 | 0.755
x2 = 0.001406, x1 = 0.0009241 | 1.146 | 1.017 | 0.919 | 0.841 | 0.765
x2 = 0.001588, x1 = 0.0007281 | 1.126 | 1.024 | 0.906 | 0.834 | 0.779
x2 = 0.001621, x1 = 0.0006634 | 1.115 | 1.012 | 0.906 | 0.835 | 0.761
x2 = 0.001717, x1 = 0.0006634 | 1.12 | 1.015 | 0.91 | 0.839 | 0.764
x2 = 0.001746, x1 = 0.000728 | 1.135 | 1.029 | 0.911 | 0.84 | 0.786
x2 = 0.001804, x1 = 0.0009237 | 1.169 | 1.03 | 0.934 | 0.857 | 0.782
x2 = 0.002295, x1 = 0.0009233 | 1.198 | 1.047 | 0.951 | 0.876 | 0.803
x2 = 0.002321, x1 = 0.0007276 | 1.168 | 1.048 | 0.931 | 0.861 | 0.809
x2 = 0.002323, x1 = 0.000663 | 1.155 | 1.034 | 0.93 | 0.86 | 0.787
x2 = 0.002686, x1 = 0.0007273 | 1.189 | 1.059 | 0.943 | 0.874 | 0.824
x2 = 0.002704, x1 = 0.0006627 | 1.176 | 1.046 | 0.942 | 0.873 | 0.801
x2 = 0.002709, x1 = 0.0009229 | 1.223 | 1.06 | 0.965 | 0.891 | 0.82

CCCC[P+](CCCC)(CCCC)CCCC.[O-]c1ccccn1 + O=C=O
Details | viscosity [mPa·s]
293 K, 101 kPa, x2 = 0.5475 | 474

CCCCC[P+](CC)(CC)CC.O=S(=O)([N-]S(=O)(=O)C(F)(F)F)C(F)(F)F + O=S(=O)([N-]S(=O)(=O)C(F)(F)F)C(F)(F)F.[Li+]
101.33 kPa
Details | electrical conductivity [S/m] | viscosity [mPa·s]
300.3 K, x2 = 0.39 | – | 1100
324.2 K, x2 = 0.39 | 0.081 | 200
330.2 K, x2 = 0.39 | 0.11 | 150
336.3 K, x2 = 0.25 | 0.37 | 42
341.2 K, x2 = 0.25 | – | 34
348.2 K, x2 = 0.25 | 0.52 | 27
361.2 K, x2 = 0.39 | – | 37
361.3 K, x2 = 0.39 | 0.36 | –

CCCC[n+]1ccn(C)c1.F[P-](F)(F)(F)(F)F + OCC(F)(F)F
101 kPa, x2 = 0
Details | viscosity [mPa·s]
278.15 K | 1165
283.15 K | 774
288.15 K | 533
293.15 K | 378
298.15 K | 274
303.15 K | 203
308.15 K | 154
313.15 K | 119
318.15 K | 93.5
323.15 K | 74.6
328.15 K | 60.4
333.15 K | 49.5

CCCC[n+]1ccn(C)c1.O=S(=O)([N-]S(=O)(=O)C(F)(F)F)C(F)(F)F + OCC(F)(F)F
Details | viscosity [mPa·s]
283.15 K, 101 kPa, x2 = 0 | 107

CC[n+]1ccn(C)c1.O=S(=O)([O-])O + OCC(O)CO
100 kPa, x1 = 0.33
Details | viscosity [mPa·s]
298.15 K | 320
303.15 K | 232
308.15 K | 168
313.15 K | 127
318.15 K | 99
323.15 K | 78

Cn1cc[nH+]c1.[Cl-] + OCC(O)CO
100 kPa, x1 = 0.333
Details | viscosity [mPa·s]
298.15 K | 126.1
313.15 K | 70.3
333.15 K | 35

CC[n+]1ccn(C)c1.O=S(=O)([O-])O + OCCO
100 kPa
Details | viscosity [mPa·s]
303.15 K, x1 = 0.125 | 15
303.15 K, x1 = 0.5 | 76
308.15 K, x1 = 0.25 | 24
313.15 K, x1 = 0.143 | 12
313.15 K, x1 = 0.33 | 30
318.15 K, x1 = 0.167 | 12
323.15 K, x1 = 0.33 | 21

CCCC[n+]1ccn(C)c1.F[P-](F)(F)(F)(F)F + OCCOCCOCCOCCO
Details | viscosity [mPa·s]
298.15 K, 101 kPa, x2 = 0 | 254

CCCC[n+]1ccn(C)c1.O=S(=O)([N-]S(=O)(=O)C(F)(F)F)C(F)(F)F + OCCOCCOCCOCCO
Details | viscosity [mPa·s]
298.15 K, 101 kPa, x2 = 0 | 45.3

CCCC[n+]1ccn(C)c1.F[P-](F)(F)(F)(F)F + OC[C@H]1O[C@H](O[C@H]2[C@H](O)[C@@H](O)C(O)O[C@@H]2CO)[C@H](O)[C@@H](O)[C@@H]1O + O
viscosity [mPa·s], 100 kPa
Details | 293.15 K | 298.15 K | 303.15 K | 308.15 K | 313.15 K
x1 = 0.0001838, x2 = 0 | 1.011 | 0.905 | 0.821 | 0.742 | 0.661
x1 = 0.0005385, x2 = 0 | 1.025 | 0.916 | 0.826 | 0.744 | 0.674
x1 = 0.0008966, x2 = 0 | 1.038 | 0.922 | 0.83 | 0.75 | 0.677
x1 = 0.001262, x2 = 0 | 1.041 | 0.932 | 0.843 | 0.761 | 0.683

Cn1cc[nH+]c1.[Cl-] + [Cl][Al]([Cl])[Cl]
101 kPa
Details | electrical conductivity, 303.15 K [S/m] | electrical conductivity, 313.15 K [S/m] | viscosity, 303.15 K [mPa·s] | viscosity, 313.15 K [mPa·s]
x2 = 0.643 | – | 0.782 | – | 31.87
x2 = 0.667 | 0.709 | – | 32.79 | –

CCCC[n+]1ccn(C)c1.F[P-](F)(F)(F)(F)F + c1ccccc1
Details | viscosity [mPa·s]
313.2 K, 100 kPa, x2 = 0.6008 | 7.7

CCCC[n+]1ccn(C)c1.F[P-](F)(F)(F)(F)F + c1ccncc1
298.15 K, 101 kPa, x2 = 0.4915
Details | electrical conductivity [S/m] | viscosity [mPa·s]
– | 0.819 | 21.8

CCCC[n+]1ccn(C)c1.O=S(=O)([N-]S(=O)(=O)C(F)(F)F)C(F)(F)F + c1ccsc1
Details | viscosity [mPa·s]
328.15 K, 100 kPa, x2 = 0 | 17.98
